# Experimental data reported in patent US20080318949A1, “Pyrazolopyrimidinone Derivatives, Their Preparation And Their Use” (Topharman Shanghai Co., Ltd, priority 2005, published 2008).
# Molecular target: T1, PDE5 from human platelets (Homo sapiens, UniProt O76074)
# T1 construct: from tissue; host or cells: human platelets
# Test: PDE5 inhibitory activity test (scintillation proximity assay)
# Type: biochemical
# Details: PDE5 from human platelets
# Description: The PDE5 and PDE3 were isolated form human platelets, while the PDE6 was isolated form bovine retinas. The enzyme inhibitory activity test conducted immediately after the enzymes had been isolated, using a scintillation proximity assay for the direct detection of AMP/GMP by the TRKQ7100 and TRKQ7090 kit. In summary, the effect of PDE inhibitors was investigated by assaying a fixed amount of enzyme in the presence of varying inhibitor concentrations and low substrate. The final assay volume was made up to 100 μl with 10 μl assay buffer (50 mM Tris/HCl PH 7.5, 8.3 mM MgCl2, 1.7 mM EGTA), and water. Reactions were initiated with enzyme, incubate for 30 minutes at 30° C. and terminated with 50 μl yttrium silicate SPA beads suspension containing zinc sulphate. Shook for 20 minutes and settled for 30 minutes in the dark, then counted on a BECKMAN LS6500 MULTI-PURPOSE SCINTILLATION COUNTER. The IC50 value for the compounds according the present invention was calculated according the counts.
# According to the above-mentioned method, the inhibitory activities of some compounds of formula IA and IB according to the invention against PDE5 from human platelets were determined.
row,Molecule,IC50 [nM]
1,"1-methyl-5-{2-ethoxy-5-[bis(3-acetoxypropyl)amidosulfonyl]phenyl}-3-n-propyl-1,6-dihydro-7H-pyrazolo[4,3-d]pyrimidin-7-one [Example 108]",17.4
2,"1-methyl-5-{2-ethoxy-5-{[1-ethyl-1-[2-[1-ethyl-1-(2-hydroxyethoxyethyl)]amino]ethyl]amidosulfonyl}phenyl}-3-n-propyl-1,6-dihydro-7H-pyrazolo[4,3-d]pyrimidin-7-one [Example 20]",0.505
3,"1-methyl-5-{2-ethoxy-5-{[1-methyl-1-[2-[1-methyl-1-(2-hydroxyethyl)]amino]ethyl]amidosulfonyl}phenyl}-3-n-propyl-1,6-dihydro-7H-pyrazolo[4,3-d]pyrimidin-7-one [Example 21]",0.928
4,"1-methyl-5-{2-propoxy-5-[[1-(2-hydroxyethoxyethyl)-1-(2-morpholin-1-yl)ethyl]amidosulfonyl]phenyl}-3-n-propyl-1,6-dihydro-7H-pyrazolo[4,3-d]pyrimidin-7-one [Example 104]",13.1
5,"1-methyl-5-{2-propoxy-5-[[1-(2-pyridylmethyl)-1-(2-piperidin-1-yl)ethyl]amidosulfonyl]phenyl}-3-n-propyl-1,6-dihydro-7H-pyrazolo[4,3-d]pyrimidin-7-one [Example 87]",8.77
6,"1-methyl-5-{2-propoxy-5-[[1-(3-ethoxyethyl)-1-(2-hydroxyethyl)]amidosulfonyl]phenyl}-3-n-propyl-1,6-dihydro-7H-pyrazolo[4,3-d]pyrimidin-7-one [Example 116]",11.2
7,"1-methyl-5-{2-propoxy-5-[[1-benzyl-1-(2-pyrrolidin-1-yl)ethyl]amidosulfonyl]phenyl}-3-n-propyl-1,6-dihydro-7H-pyrazolo[4,3-d]pyrimidin-7-one [Example 84]",11.7
8,"1-methyl-5-{2-propoxy-5-[[1-ethyl-1-(2-acetoxyethyl)]amidosulfonyl]phenyl}-3-n-propyl-1,6-dihydro-7H-pyrazolo[4,3-d]pyrimidin-7-one [Example 94]",5.41
9,"CCOc1ccc(S(=O)(=O)N(CCOC(C)=O)CCOC(C)=O)cc1-c1nc2c(CC)nn(C)c2c(=O)[nH]1 [Example 6, 1-methyl-5-{2-ethoxy-5-[bis(2-acetoxyethyl)amidosulfonyl]phenyl}-3-ethyl-1,6-dihydro-7H-pyrazolo[4,3-d]pyrimidin-7-one]",0.74
10,"CCOc1ccc(S(=O)(=O)N(CCOC(=O)c2cccnc2)CCOC(=O)c2cccnc2)cc1-c1nc2c(CC)nn(C)c2c(=O)[nH]1 [Example 7, 1-methyl-5-{2-ethoxy-5-[bis(2-nicotinoyloxyethyl)amidosulfonyl]phenyl}-3-ethyl-1,6-dihydro-7H-pyrazolo[4,3-d]pyrimidin-7-one]",0.5
11,"CCCc1nn(C)c2c(=O)[nH]c(-c3cc(S(=O)(=O)N(CCOC(C)=O)CCOC(C)=O)ccc3OCCOC)nc12 [Example 9, 1-methyl-5-{2-methoxyethoxy-5-[bis(2-acetoxyethyl)amidosulfonyl]phenyl}-3-n-propyl-1,6-dihydro-7H-pyrazolo[4,3-d]pyrimidin-7-one]",16.9
12,"CCCc1nn(C)c2c(=O)[nH]c(-c3cc(S(=O)(=O)N(CCOC(C)=O)CCN(CC)CC)ccc3OCC)nc12 [Example 12, 1-methyl-5-{2-ethoxy-5-[[1-(2-diethylaminoethyl)-1-(2-acetoxyethyl)]amidosulfonyl]phenyl}-3-n-propyl-1,6-dihydro-7H-pyrazolo[4,3-d]pyrimidin-7-one]",6.98
13,"CCCc1nn(C)c2c(=O)[nH]c(-c3cc(S(=O)(=O)N(CCOCCOC(C)=O)CCN(CC)CC)ccc3OCC)nc12 [Example 15, 1-methyl-5-{2-ethoxy-5-[1-(2-diethylaminoethyl)-1-(2-acetoxyethoxyethyl)amidosulfonyl]phenyl}-3-n-propyl-1,6-dihydro-7H-pyrazolo[4,3-d]pyrimidin-7-one]",10.6
14,"CCOc1ccc(S(=O)(=O)N(CC)CCN(CC)CCOC(C)=O)cc1-c1nc2c(CC)nn(CC)c2c(=O)[nH]1 [Example 19, 1-ethyl-5-{2-ethoxy-5-{[1-ethyl-1-[2-[1-ethyl-1-(2-acetoxyethyl)]amino]ethyl]amidosulfonyl}phenyl}-3-n-propyl-1,6-dihydro-7H-pyrazolo[4,3-d]pyrimidin-7-one]",4.29

# Results, then the molecule that gave them:
row,IC50 [nM],Molecule
1,22.2,"1-methyl-5-{2-methoxyethoxy-5-[bis(2-hydroxyethyl)amidosulfonyl]phenyl}-3-n-propyl-1,6-dihydro-7H-pyrazolo[4,3-d]pyrimidin-7-one [Example 10]"
2,2.14,CCOc1ccc(S(=O)(=O)N(CCO)CCO)cc1-c1nc2c(CC)nn(C)c2c(=O)[nH]1 [Example 8]
3,38.1,"CCCc1nn(C)c2c(=O)[nH]c(-c3cc(S(=O)(=O)N(CCOC)CCN(CC)CC)ccc3OCC)nc12 [Example 11, 1-methyl-5-{2-ethoxy-5-[[1-(2-diethylaminoethyl)-1-(2-methoxyethyl)]amidosulfonyl]phenyl}-3-n-propyl-1,6-dihydro-7H-pyrazolo[4,3-d]pyrimidin-7-one]"
4,7.37,"CCCc1nn(C)c2c(=O)[nH]c(-c3cc(S(=O)(=O)N(CCO)CCN(CC)CC)ccc3OCC)nc12 [Example 13, 1-methyl-5-{2-ethoxy-5-[1-(2-diethylaminoethyl)-1-(2-hydroxyethyl)amidosulfonyl]phenyl}-3-n-propyl-1,6-dihydro-7H-pyrazolo[4,3-d]pyrimidin-7-one]"
5,0.862,"CCCOc1ccc(S(=O)(=O)N(CCO)CCN(CC)CC)cc1-c1nc2c(CCC)nn(C)c2c(=O)[nH]1 [Example 14, 1-methyl-5-{2-propoxy-5-[1-(2-diethylaminoethyl)-1-(2-hydroxyethyl)amidosulfonyl]phenyl}-3-n-propyl-l,6-dihydro-7H-pyrazolo[4,3-d]pyrimidin-7-one]"
6,13.4,"CCCc1nn(C)c2c(=O)[nH]c(-c3cc(S(=O)(=O)N(CCOCCO)CCN(CC)CC)ccc3OCC)nc12 [Example 16, 1-methyl-5-{2-ethoxy-5-[1-(2-diethylaminoethyl)-1-(2-hydroxyethoxyethyl)amidosulfonyl]phenyl}-3-n-propyl-1,6-dihydro-7H-pyrazolo[4,3-d]pyrimidin-7-one]"
7,8.55,CCCc1nn(C)c2c(=O)[nH]c(-c3cc(S(=O)(=O)N(CC)CCN(CC)CCOC(C)=O)ccc3OCC)nc12 [Example 17]
8,6.32,CCCc1nn(C)c2c(=O)[nH]c(-c3cc(S(=O)(=O)N(CC)CCN(CC)CCO)ccc3OCC)nc12 [Example 18]
9,0.294,"CCCc1nn(C)c2c(=O)[nH]c(-c3cc(S(=O)(=O)N(C)CCN(C)CCOCCOCCOCc4ccccc4)ccc3OCC)nc12 [Example 22, 1-methyl-5-{2-ethoxy-5-{[1-methyl-1-[2-[1-methyl-1-(2-benzyloxyethoxyethoxyethyl)]amino]ethyl]amidosulfonyl}phenyl}-3-n-propyl-1,6-dihydro-7H-pyrazolo[4,3-d]pyrimidin-7-one]"
10,0.072,"CCCOc1ccc(S(=O)(=O)N(C)CCN(C)CCO)cc1-c1nc2c(CCC)nn(C)c2c(=O)[nH]1 [Example 23, 1-methyl-5-{2-propoxy-5-{[1-methyl-1-[2-[1-methyl-1-(2-hydroxyethyl)]amino]ethyl]amidosulfonyl}phenyl}-3-n-propyl-1,6-dihydro-7H-pyrazolo[4,3-d]pyrimidin-7-one]"
11,24.9,"CCCc1nn(C)c2c(=O)[nH]c(-c3cc(S(=O)(=O)N(CCN4CCOCC4)Cc4ccccc4)ccc3OC)nc12 [Example 26, 1-methyl-5-{2-methoxy-5-[[1-benzyl-1-(2-morpholin-1-yl)ethyl]amidosulfonyl]phenyl}-3-n-propyl-1,6-dihydro-7H-pyrazolo[4,3-d]pyrimidin-7-one]"
12,0.456,"CCOc1ccc(S(=O)(=O)N(CCN2CCOCC2)Cc2ccccc2)cc1-c1nc2c(CC)nn(C)c2c(=O)[nH]1 [Example 27, 1-methyl-5-{2-ethoxy-5-[[1-benzyl-1-(2-morpholin-1-yl)ethyl]amidosulfonyl]phenyl}-3-ethyl-1,6-diydro-7H-pyrazolo[4,3-d]pyrimidin-7-one]"
13,0.681,"CCCc1nn(C)c2c(=O)[nH]c(-c3cc(S(=O)(=O)N(CCOCCO)CCN4CCOCC4)ccc3OCC)nc12 [Example 28, 1-methyl-5-{2-ethoxy-5-[[1-(2-hydroxyethoxyethyl)-1-(2-morpholin-1-yl)ethyl]amidosulfonyl]phenyl}-3-n-propyl-1,6-dihydro-7H-pyrazolo[4,3-d]pyrimidin-7-one]"
14,0.31,"CCCc1nn(C)c2c(=O)[nH]c(-c3cc(S(=O)(=O)N(CCO)CCN4CCCCC4)ccc3OCC)nc12 [Example 29, 1-methyl-5-{2-ethoxy-5-[[1-(2-hydroxyethyl)-1-(2-piperidin-1-yl)ethyl]amidosulfonyl]phenyl}-3-n-propyl-1,6-dihydro-7H-pyrazolo[4,3-d]pyrimidin-7-one]"
15,4.9,CCCOc1ccc(S(=O)(=O)N(CCCO)CCCO)cc1-c1nc2c(CCC)nn(C)c2c(=O)[nH]1 [Example 37]
16,10.5,"CCCOc1ccc(S(=O)(=O)N(CC)CCN2CCOCC2)cc1-c1nc2c(CCC)nn(C)c2c(=O)[nH]1 [Example 41, 1-methyl-5-{2-propoxy-5-[[1-ethyl-1-(2-morpholin-1-yl)ethyl]amidosulfonyl]phenyl}-3-propyl-1,6-dihydro-7H-pyrazolo[4,3-d]pyrimidin-7-one]"
